# Columns and labels:
# [1] = test system: purple nutsedge; experiment: Test B pre/postemergence purple nutsedge; assay type: in vivo, Cyperus rotundus
# Method in brief: (§1)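 Response is a visual 0-to-10 score relative to untreated plants, where 0 means no effect and 10 means complete control, taken twelve to sixteen days after application. Treatments went onto soil at planting and onto foliage of 1- to 4-leaf plants, using a surfactant-containing non-phytotoxic solvent.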
# [2] = test system: blackgrass; experiment: Test B pre/postemergence blackgrass; assay type: in vivo, Alopecurus myosuroides
# Method in brief: as §1
# [3] = test system: wheat; experiment: Test B pre/postemergence wheat; assay type: in vivo, Triticum aestivum; settings: for Plant response rating, Wheat: Rate 250 g/ha
# Method in brief: as §1
# [4] = test system: corn; experiment: Test B pre/postemergence corn; assay type: in vivo, Zea mays
# Method in brief: as §1
# [5] = test system: rape; experiment: Test B pre/postemergence rape; assay type: in vivo, Brassica napus
# Method in brief: as §1
# [6] = test system: wild oat; experiment: Test B pre/postemergence wild oat; assay type: in vivo, Avena fatua; settings: for Plant response rating, Wild oats: Rate 250 g/ha
# Method in brief: as §1
# [7] = test system: surinam grass; experiment: Test B pre/postemergence surinam grass; assay type: in vivo, Brachiaria decumbens
# Method in brief: as §1
# [8] = test system: bamyardgrass; experiment: Test B flood test barnyardgrass; assay type: in vivo, Echinochloa crus-galli
# Method in brief: (§2)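 Plants were grown to the 2-leaf stage before treatment with test chemical, then held in a greenhouse for twelve to sixteen days. Injury was visually rated against untreated controls on a 0–10 scale, where 0 is no effect and 10 is complete control.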
# [9] = test system: pigweed; experiment: Test B pre/postemergence pigweed; assay type: in vivo, Amaranthus retroflexus
# Method in brief: as §1
# [10] = test system: bedstraw; experiment: Test B pre/postemergence bedstraw; assay type: in vivo, Galium aparine
# Method in brief: as §1
# [11] = test system: crabgrass; experiment: Test B pre/postemergence crabgrass; assay type: in vivo, Digitaria sanguinalis
# Method in brief: as §1
# [12] = test system: smallflower flatsedge; experiment: Test B flood test smallflower flatsedge; assay type: in vivo, Cyperus difformis
# Method in brief: as §2
# [13] = test system: morningglory; experiment: Test B pre/postemergence morningglory; assay type: in vivo, Ipomoea hederacea
# Method in brief: as §1
# [14] = test system: giant foxtail; experiment: Test B pre/postemergence giant foxtail; assay type: in vivo, Setaria faberii
# Method in brief: as §1
# [15] = test system: sugar beet; experiment: Test B pre/postemergence sugar beet; assay type: in vivo, Beta vulgaris; settings: for Plant response rating, Sugarbeets: Rate 250 g/ha
# Method in brief: as §1
# [16] = test system: rice; experiment: Test B flood test rice; assay type: in vivo, Oryza sativa
# Method in brief: as §2
# [17] = Postemergence, Rate 62 g/ha, scale 0 to 10, 0 is no effect, 10 is complete control
# [18] = Postemergence, Rate 125 g/ha, scale of 0 to 10 where 0 is no effect and 10 is complete control
# [19] = Postemergence, Rate 250 g/ha, scale 0 to 10, 0 no effect, 10 complete control
# [20] = Preemergence, Rate 62 g/ha, scale 0 to 10 (0 no effect, 10 complete control)
# [21] = Preemergence, Rate 125 g/ha, scale 0 to 10 (0 no effect, 10 complete control)
# [22] = Preemergence, Rate 250 g/ha, scale of 0 to 10 where 0 is no effect and 10 is complete control
# [23] = Preemergence, Rate 500 g/ha, scale 0 (no effect) to 10 (complete control)
# [24] = Rate 500 g/ha, Postemergence, scale 0 to 10, 0 no effect, 10 complete control
# [25] = Preemergence, Rate 125 g/ha, 0 is no effect, 10 is complete control
# [26] = Preemergence, scale of 0 to 10 where 0 is no effect and 10 is complete control
# [27] = Postemergence, scale 0 to 10, 0 is no effect, 10 is complete control
# [28] = Rate 125 g/ha, Postemergence, scale 0 to 10, 0 no effect, 10 complete control
# [29] = Rate 500 g/ha, listed under Postemergence (flood test species), scale 0 to 10, 0 no effect, 10 complete control
# [30] = Postemergence (flood test species), Rate 125 g/ha, scale of 0 to 10 where 0 is no effect and 10 is complete control
# [31] = Rate 250 g/ha, Postemergence (flood test), scale 0 to 10, 0 is no effect, 10 is complete control
smiles,measurement,setting,value
Cc1nn(C)c(Cl)c1-n1c(=O)on(C(=O)N(c2ccc(F)cc2F)C(C)C)c1=O [Compound 96],Nutsedge plant response rating,[1]; [17],0
same,Nutsedge plant response rating,[1]; [18],0
same,Nutsedge plant response rating,[1]; [19],0
same,Nutsedge plant response rating,[1]; [20],0
same,"Plant response rating, Nutsedge",[1]; [21],0
same,"Plant response rating, Nutsedge",[1]; [22],0
same,Nutsedge plant response rating,[1]; [23],0
same,Nutsedge plant response rating,[1]; [24],0
same,Blackgrass plant response rating,[2]; [17],0
same,Blackgrass plant response rating,[2]; [18],0
same,Blackgrass plant response rating,[2]; [19],0
same,Blackgrass plant response rating,[2]; [20],0
same,"Plant response rating, Blackgrass",[2]; [21],3
same,"Plant response rating, Blackgrass",[2]; [22],3
same,Blackgrass plant response rating,[2]; [23],8
same,Blackgrass plant response rating,[2]; [24],0
same,Wheat plant response rating,[3]; [17],0
same,Wheat plant response rating,[3]; [18],0
same,Wheat plant response rating,[3]; [20],0
same,Wheat plant response rating (0 to 10 scale),[3]; [25],0
same,"Plant response rating, Wheat",[3]; [26],0
same,Wheat plant response rating,[3]; [23],0
same,"Plant response rating, Wheat",[3]; [27],0
same,Wheat plant response rating,[3]; [24],0
same,Corn plant response rating,[4]; [17],0
same,Corn plant response rating,[4]; [18],0
same,Corn plant response rating,[4]; [19],0
same,Corn plant response rating,[4]; [20],0
same,"Plant response rating, Corn",[4]; [21],0
same,"Plant response rating, Corn",[4]; [22],0
same,Corn plant response rating,[4]; [23],0
same,Corn plant response rating,[4]; [24],0
same,Rape plant response rating,[5]; [17],0
same,Rape plant response rating,[5]; [18],0
same,Rape plant response rating,[5]; [19],0
same,Rape plant response rating,[5]; [20],0
same,"Plant response rating, Rape",[5]; [21],0
same,"Plant response rating, Rape",[5]; [22],0
same,Rape plant response rating,[5]; [23],3
same,Rape plant response rating,[5]; [24],0
same,Wild oats plant response rating,[6]; [17],0
same,Wild oats plant response rating,[6]; [18],0
same,Wild oats plant response rating,[6]; [20],0
same,Wild oats plant response rating (0 to 10 scale),[6]; [25],0
same,"Plant response rating, Wild oats",[6]; [26],2
same,Wild oats plant response rating,[6]; [23],7
same,"Plant response rating, Wild oats",[6]; [27],0
same,Wild oats plant response rating,[6]; [24],0
same,B. signalgrass plant response rating,[7]; [17],0
same,B. signalgrass plant response rating,[7]; [19],0
same,B. signalgrass plant response rating,[7]; [20],0
same,"Plant response rating, B. signalgrass",[7]; [21],0
same,"Plant response rating, B. signalgrass",[7]; [22],1
same,B. signalgrass plant response rating,[7]; [23],2
same,B. signalgrass plant response rating,[7]; [28],0
same,B. signalgrass plant response rating,"[7]; Rate 500 g/ha, Postemergence, scale of 0 to 10 where 0 is no effect and 10 is complete control",0
same,Barnyardgrass plant response rating,[8]; [17],0
same,Barnyardgrass plant response rating,"[8]; Rate 125 g/ha, Postemergence section (flood test species), scale 0 to 10, 0 no effect, 10 complete control",0
same,Barnyardgrass plant response rating,[8]; [29],0
same,Barnyardgrass plant response rating,"[8]; flood test, listed under Postemergence, Rate 250 g/ha, scale 0 to 10, 0 no effect, 10 complete control",0
same,Redroot pigweed plant response rating,[9]; [17],0
same,Redroot pigweed plant response rating,[9]; [18],0
same,"Plant response rating, Redroot pigweed",[9]; [21],6
same,"Plant response rating, Redroot pigweed",[9]; [22],7
same,Redroot pigweed plant response rating,[9]; [23],8
same,"Plant response rating, Redroot pigweed","[9]; Rate 250 g/ha, Postemergence, scale 0 to 10, 0 is no effect, 10 is complete control",0
same,Redroot pigweed plant response rating,[9]; [24],0
same,Bedstraw plant response rating,[10]; [17],0
same,Bedstraw plant response rating,[10]; [19],0
same,Bedstraw plant response rating,[10]; [20],0
same,"Plant response rating, Bedstraw",[10]; [21],0
same,"Plant response rating, Bedstraw",[10]; [22],0
same,Bedstraw plant response rating,[10]; [23],2
same,Bedstraw plant response rating,[10]; [28],0
same,Bedstraw plant response rating,[10]; [24],0
same,Crabgrass plant response rating,[11]; [17],1
same,Crabgrass plant response rating,[11]; [18],3
same,Crabgrass plant response rating,[11]; [19],3
same,Crabgrass plant response rating,[11]; [20],1
same,"Plant response rating, Crabgrass",[11]; [21],4
same,"Plant response rating, Crabgrass",[11]; [22],7
same,Crabgrass plant response rating,[11]; [23],9
same,Crabgrass plant response rating,[11]; [24],8
same,S. Flatsedge plant response rating,[12]; [30],0
same,S. Flatsedge plant response rating,[12]; [17],0
same,"Plant response rating, S. Flatsedge",[12]; [31],0
same,S. Flatsedge plant response rating,[12]; [29],3
same,Morningglory plant response rating,[13]; [17],1
same,Morningglory plant response rating,[13]; [18],1
same,Morningglory plant response rating,[13]; [19],1
same,Morningglory plant response rating,[13]; [20],0
same,"Plant response rating, Morningglory",[13]; [21],0
same,"Plant response rating, Morningglory",[13]; [22],0
same,Morningglory plant response rating,[13]; [23],0
same,Morningglory plant response rating,[13]; [24],2
same,Giant foxtail plant response rating,[14]; [17],0
same,Giant foxtail plant response rating,[14]; [18],0
same,Giant foxtail plant response rating,[14]; [19],0
same,Giant foxtail plant response rating,[14]; [20],2
same,"Plant response rating, Giant foxtail",[14]; [21],2
same,"Plant response rating, Giant foxtail",[14]; [22],3
same,Giant foxtail plant response rating,[14]; [23],8
same,Giant foxtail plant response rating,[14]; [24],3
same,Sugarbeets plant response rating,[15]; [17],0
same,Sugarbeets plant response rating,[15]; [18],0
same,Sugarbeets plant response rating,[15]; [20],0
same,Sugarbeets plant response rating (0 to 10 scale),[15]; [25],0
same,"Plant response rating, Sugarbeets",[15]; [26],0
same,Sugarbeets plant response rating,[15]; [23],2
same,"Plant response rating, Sugarbeets",[15]; [27],0
same,Sugarbeets plant response rating,[15]; [24],0
same,Rice plant response rating,[16]; [30],0
same,Rice plant response rating,[16]; [17],0
same,"Plant response rating, Rice",[16]; [31],0
same,Rice plant response rating,[16]; [29],2
